{"source": "paper PMC5328913", "about": "(Redox Biology, 2017)", "biological_target": "T1, L-galactono-1,4-lactone dehydrogenase (GalLDH) from pepper fruits (Capsicum annuum, UniProt Q6QD76)", "T1 sequence (Q6QD76 38-586)": "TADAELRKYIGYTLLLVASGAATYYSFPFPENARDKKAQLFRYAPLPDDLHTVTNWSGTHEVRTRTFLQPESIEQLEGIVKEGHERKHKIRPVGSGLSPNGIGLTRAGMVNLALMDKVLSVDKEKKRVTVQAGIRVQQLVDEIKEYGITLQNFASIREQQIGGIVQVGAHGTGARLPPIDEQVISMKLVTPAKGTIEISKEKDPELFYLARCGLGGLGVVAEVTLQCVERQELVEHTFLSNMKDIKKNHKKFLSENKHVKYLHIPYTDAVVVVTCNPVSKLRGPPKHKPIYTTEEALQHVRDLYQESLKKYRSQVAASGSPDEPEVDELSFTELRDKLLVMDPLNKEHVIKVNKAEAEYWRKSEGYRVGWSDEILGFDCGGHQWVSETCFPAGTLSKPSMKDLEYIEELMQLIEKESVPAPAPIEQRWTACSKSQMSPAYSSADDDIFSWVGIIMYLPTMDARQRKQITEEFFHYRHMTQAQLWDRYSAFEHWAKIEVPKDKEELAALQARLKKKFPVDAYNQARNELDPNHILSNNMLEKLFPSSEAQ", "assay": "spectrophotometric cytochrome c reduction at […] nm", "format": "biochemical", "conditions": "read-out: % inhibition at 0.5 mM and 2 mM", "data": [{"smiles": "N[C@@H](CCC(=O)N[C@@H](CS)C(=O)NCC(=O)O)C(=O)O", "note": "[GSH, reduced glutathione]", "values": [{"measurement": "inhibition at 500 µM", "value": 60, "unit": "%"}]}]}
